Patent publication US4005076A, “Hydrazones of 3-formylrifamycin SV” (Gruppo Lepetit S.p.A., priority 1971, dated 1977)
≈ marks a conversion by molar mass, not a printed value.

What was measured:
[1] = tested on: Staphylococcus aureus strain which is resistant to rifampicin (Staph. aureus Tour); test: in vitro minimal inhibitory concentration against rifampicin-resistant Staphylococcus aureus strain; type: cell-based; settings: Staphylococcus aureus, read-out: Minimal inhibitory concentration
Protocol: In particular, compounds illustrative of the invention at concentrations of about 10 to 20 μg/ml or less inhibit the growth of a Staph. aureus Tour strain resistant to rifampicin.
One of the most important characteristics of the new hydrazones is their activity against rifampicin-resistant Staphylococcus aureus strains. Rifampicin, that is 3-(4-methyl-1-piperazinyl)iminomethylrifamycin SV, disclosed in U.S. Pat. No. 3,342,810, is the most known and widely used rifamycin derivative in therapeutic practice.
The data of the new compounds are compared with those of representative hydrazones disclosed in U.S. Pat. No. 3,342,810.

[2] = target: T1, mouse embryo RNA-polymerase II (ME-RNA-P2) (Mus musculus, UniProt P08775+Q8CFI7); test: effect on mouse embryo RNA-polymerase II; type: biochemical; settings: Single Stranded Calf-Thymus DNA; for remaining activity at 10 µg: 10μg, read-out: % Control Activity of ME-RNA-P2 at 10μg; for remaining activity at 100 µg: 100μg, read-out: % Control Activity of ME-RNA-P2 at 100μg
T1 construct: mouse embryo RNA-polymerase II (ME-RNA-P2); endogenous in cells; host or cells: mouse embryo cells
Excerpt: (§1) Calf-Thymus DNA. Me-RNA-P1 and ME-RNA-P2 : Single Stranded

[3] = tested on: mouse embryo DNA-polymerase I (ME-DNA-P1); test: effect on mouse embryo DNA-polymerase I; type: biochemical; settings: activated Calf-Thymus DNA
Excerpt: (§2) Oligo dT.Poly rA. ME-DNA-P1 and ME-DNA-p2 : activated

[4] = target: T2, mouse embryo RNA-polymerase I (ME-RNA-P1) (Mus musculus, UniProt O35134+P70700); test: effect on mouse embryo RNA-polymerase I; type: biochemical; settings: Single Stranded Calf-Thymus DNA; for remaining activity at 10 µg: 10μg, read-out: % Control Activity of ME-RNA-P1 at 10μg; for remaining activity at 100 µg: 100μg, read-out: % Control Activity of ME-RNA-P1 at 100μg
T2 construct: mouse embryo RNA-polymerase I (ME-RNA-P1); endogenous in cells; host or cells: mouse embryo cells
Excerpt: as §1

[5] = target: T3, sarcoma virus DNA-polymerases (SSV-DNA-P) (Woolly monkey sarcoma virus, UniProt P03359); test: effect on activity of SSV-polymerase; type: biochemical; settings: template Oligo dT.Poly rA
T3 construct: sarcoma virus DNA-polymerases (SSV-DNA-P)
T3 sequence (P03359 642-1310): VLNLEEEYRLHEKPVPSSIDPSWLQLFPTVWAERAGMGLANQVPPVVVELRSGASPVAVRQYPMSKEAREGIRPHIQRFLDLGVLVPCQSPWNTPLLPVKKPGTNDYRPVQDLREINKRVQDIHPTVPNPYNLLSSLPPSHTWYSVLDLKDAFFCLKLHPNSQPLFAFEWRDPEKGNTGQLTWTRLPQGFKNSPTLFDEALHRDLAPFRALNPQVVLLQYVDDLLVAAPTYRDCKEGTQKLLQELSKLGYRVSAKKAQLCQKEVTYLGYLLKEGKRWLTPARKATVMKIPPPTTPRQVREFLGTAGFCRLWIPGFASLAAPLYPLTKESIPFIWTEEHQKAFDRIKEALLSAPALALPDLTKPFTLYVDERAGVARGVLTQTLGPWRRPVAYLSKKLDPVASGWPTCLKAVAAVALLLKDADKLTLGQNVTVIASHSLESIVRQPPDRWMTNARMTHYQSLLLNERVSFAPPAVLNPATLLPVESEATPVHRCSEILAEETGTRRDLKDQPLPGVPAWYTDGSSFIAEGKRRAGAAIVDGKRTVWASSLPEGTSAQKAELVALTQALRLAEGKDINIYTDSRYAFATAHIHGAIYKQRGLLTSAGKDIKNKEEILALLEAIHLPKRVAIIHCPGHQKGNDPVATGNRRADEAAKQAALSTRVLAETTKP
Excerpt: Templates used in the Enzymatic Assays were the following: SSV-DNA-P: […]

[6] = tested on: mouse embryo DNA-polymerase II (ME-DNA-P2); test: effect on mouse embryo DNA-polymerase II; type: biochemical; settings: activated Calf-Thymus DNA
Excerpt: as §2

SMILES: CCCCCN(C)N=Cc1c2c(O)c3c(O)c(C)c4c(c3c1O)C(=O)C(C)(OC=CC(OC)C(C)C(OC(C)=O)C(C)C(O)C(C)C(O)C(C)C=CC=C(C)C(=O)N2)O4 (centres unmarked) [Example 3]
- MIC [1]: 10 µg/mL (≈ 12.1 µM)

SMILES: COC1C=COC2(C)Oc3c(C)c(O)c4c(c3C2=O)C2(C=C(NC(=O)C(C)=CC=CC(C)C(O)C(C)C(O)C(C)C(OC(C)=O)C1C)C4=O)OCC(=O)O2 (centres unmarked) [rifamycin O]
- remaining activity at 10 µg [2]: 93%
- remaining activity at 100 µg [2]: 65%
- % Control Activity of ME-DNA-P1 at 10μg [3]: 92%
- % Control Activity of ME-DNA-P1 at 100μg [3]: 65%
- remaining activity at 10 µg [4]: 77%
- remaining activity at 100 µg [4]: 75%
- % Control Activity of SSV-DNA-P at 5μg [5]: 100%
- % Control Activity of SSV-DNA-P at 10μg [5]: 98%
- % Control Activity of SSV-DNA-P at 100μg [5]: 83%
- % Control Activity of ME-DNA-P2 at 10μg [6]: 97%
- % Control Activity of ME-DNA-P2 at 100μg [6]: 5%

SMILES: COC1C=COC2(C)Oc3c(C)c(O)c4c(O)c(c(C=NNCCOc5c(Cl)cc(N)cc5Cl)c(O)c4c3C2=O)NC(=O)C(C)=CC=CC(C)C(O)C(C)C(O)C(C)C(OC(C)=O)C1C (centres unmarked) [Example 34]
- MIC [1]: 50 µg/mL (≈ 53 µM)

SMILES: COC1C=COC2(C)Oc3c(C)c(O)c4c(O)c(c(C=NNc5c(Cl)cc(Cl)cc5Cl)c(O)c4c3C2=O)NC(=O)C(C)=CC=CC(C)C(O)C(C)C(O)C(C)C(OC(C)=O)C1C (centres unmarked) [Example 39]
- MIC [1]: 5 µg/mL (≈ 5.44 µM)

SMILES: COc1ccccc1NN=Cc1c2c(O)c3c(O)c(C)c4c(c3c1O)C(=O)C(C)(OC=CC(OC)C(C)C(OC(C)=O)C(C)C(O)C(C)C(O)C(C)C=CC=C(C)C(=O)N2)O4 (centres unmarked) [Example 33]
- MIC [1]: 50 µg/mL (≈ 59.1 µM)

SMILES: CO[C@H]1/C=C/O[C@@]2(C)Oc3c(C)c(O)c4c(c3C2=O)C(=O)C=C(NC(=O)/C(C)=C\C=C\[C@H](C)[C@H](O)[C@@H](C)[C@@H](O)[C@@H](C)[C@H](OC(C)=O)[C@@H]1C)C4=O [rifamycin S]
- remaining activity at 10 µg [2]: 78%
- remaining activity at 100 µg [2]: 81%
- % Control Activity of ME-DNA-P1 at 10μg [3]: 84%
- % Control Activity of ME-DNA-P1 at 100μg [3]: 86%
- remaining activity at 10 µg [4]: 102%
- remaining activity at 100 µg [4]: 90%
- % Control Activity of SSV-DNA-P at 5μg [5]: 88%
- % Control Activity of SSV-DNA-P at 10μg [5]: 108%
- % Control Activity of SSV-DNA-P at 100μg [5]: 100%
- % Control Activity of ME-DNA-P2 at 10μg [6]: 94%
- % Control Activity of ME-DNA-P2 at 100μg [6]: 9%

SMILES: COC1C=COC2(C)Oc3c(C)c(O)c4c(O)c(c(C=NN(C)Cc5ccc(-c6ccccc6)cc5)c(O)c4c3C2=O)NC(=O)C(C)=CC=CC(C)C(O)C(C)C(O)C(C)C(OC(C)=O)C1C (centres unmarked) [Example 42]
- MIC [1]: 5 µg/mL (≈ 5.43 µM)

SMILES: COC1C=COC2(C)Oc3c(C)c(O)c4c(O)c(cc(OCC(=O)O)c4c3C2=O)NC(=O)C(C)=CC=CC(C)C(O)C(C)C(O)C(C)C(OC(C)=O)C1C (centres unmarked) [rifamycin B]
- remaining activity at 10 µg [2]: 102%
- remaining activity at 100 µg [2]: 95%
- % Control Activity of ME-DNA-P1 at 10μg [3]: 103%
- % Control Activity of ME-DNA-P1 at 100μg [3]: 81%
- remaining activity at 10 µg [4]: 76%
- remaining activity at 100 µg [4]: 85%
- % Control Activity of SSV-DNA-P at 5μg [5]: 96%
- % Control Activity of SSV-DNA-P at 10μg [5]: 104%
- % Control Activity of SSV-DNA-P at 100μg [5]: 75%
- % Control Activity of ME-DNA-P2 at 10μg [6]: 46%
- % Control Activity of ME-DNA-P2 at 100μg [6]: 4%

SMILES: COC1C=COC2(C)Oc3c(C)c(O)c4c(O)c(c(C=NNC56CC7CC(CC(C7)C5)C6)c(O)c4c3C2=O)NC(=O)C(C)=CC=CC(C)C(O)C(C)C(O)C(C)C(OC(C)=O)C1C (centres unmarked) [Example 47]
- MIC [1]: 5 µg/mL (≈ 5.72 µM)

SMILES: COC1C=COC2(C)Oc3c(C)c(O)c4c(O)c(c(C=NNc5cc(-c6ccccc6)nc6cc(C(F)(F)F)ccc56)c(O)c4c3C2=O)NC(=O)C(C)=CC=CC(C)C(O)C(C)C(O)C(C)C(OC(C)=O)C1C (centres unmarked) [Example 23]
- MIC [1]: 20 µg/mL (≈ 19.8 µM)

SMILES: COC1C=COC2(C)Oc3c(C)c(O)c4c(O)c(c(C=NNC5CCCC5)c(O)c4c3C2=O)NC(=O)C(C)=CC=CC(C)C(O)C(C)C(O)C(C)C(OC(C)=O)C1C (centres unmarked) [Example 1]
- MIC [1]: 20 µg/mL (≈ 24.8 µM)

SMILES: COC1C=COC2(C)Oc3c(C)c(O)c4c(O)c(c(C=NNc5ccc(F)cc5)c(O)c4c3C2=O)NC(=O)C(C)=CC=CC(C)C(O)C(C)C(O)C(C)C(OC(C)=O)C1C (centres unmarked) [Example 37]
- MIC [1]: 50 µg/mL (≈ 60 µM)

SMILES: CCCCCN(CCCCC)N=Cc1c2c(O)c3c(O)c(C)c4c(c3c1O)C(=O)C(C)(OC=CC(OC)C(C)C(OC(C)=O)C(C)C(O)C(C)C(O)C(C)C=CC=C(C)C(=O)N2)O4 (centres unmarked) [Example 46]
- MIC [1]: 1 µg/mL (≈ 1.14 µM)

SMILES: CCN(CC)N=Cc1c2c(O)c3c(O)c(C)c4c(c3c1O)C(=O)C(C)(OC=CC(OC)C(C)C(OC(C)=O)C(C)C(O)C(C)C(O)C(C)C=CC=C(C)C(=O)N2)O4 (centres unmarked) [N,N-Diethylhydrazone of 3-formylrifamycin SV]
- MIC [1]: > 100 µg/mL

SMILES: COC1C=COC2(C)Oc3c(C)c(O)c4c(O)c(c(C=NNc5ccnc6c(C(F)(F)F)cccc56)c(O)c4c3C2=O)NC(=O)C(C)=CC=CC(C)C(O)C(C)C(O)C(C)C(OC(C)=O)C1C (centres unmarked) [Example 22]
- MIC [1]: 50 µg/mL (≈ 53.5 µM)

SMILES: COC1C=COC2(C)Oc3c(C)c(O)c4c(O)c(c(C=NNc5cccc([N+](=O)[O-])c5)c(O)c4c3C2=O)NC(=O)C(C)=CC=CC(C)C(O)C(C)C(O)C(C)C(OC(C)=O)C1C (centres unmarked) [Example 36]
- MIC [1]: 50 µg/mL (≈ 58.1 µM)

SMILES: COC1C=COC2(C)Oc3c(C)c(O)c4c(O)c(c(C=NNc5ccc(C(=O)O)cc5)c(O)c4c3C2=O)NC(=O)C(C)=CC=CC(C)C(O)C(C)C(O)C(C)C(OC(C)=O)C1C (centres unmarked) [p-Carboxyphenylhydrazone of 3-formylrifamycin SV]
- MIC [1]: > 100 µg/mL

SMILES: COC1C=COC2(C)Oc3c(C)c(O)c4c(O)c(c(C=NNc5ccccc5[N+](=O)[O-])c(O)c4c3C2=O)NC(=O)C(C)=CC=CC(C)C(O)C(C)C(O)C(C)C(OC(C)=O)C1C (centres unmarked) [Example 35]
- MIC [1]: 20 µg/mL (≈ 23.2 µM)

SMILES: COC1C=COC2(C)Oc3c(C)c(O)c4c(O)c(c(C=NNc5c(C)cc(C(C)(C)C)cc5C)c(O)c4c3C2=O)NC(=O)C(C)=CC=CC(C)C(O)C(C)C(O)C(C)C(OC(C)=O)C1C (centres unmarked) [Example 41]
- MIC [1]: 20 µg/mL (≈ 22.2 µM)

SMILES: COC1C=COC2(C)Oc3c(C)c(O)c4c(O)c(c(C=NNc5cc(C)c6cccc(C)c6n5)c(O)c4c3C2=O)NC(=O)C(C)=CC=CC(C)C(O)C(C)C(O)C(C)C(OC(C)=O)C1C (centres unmarked) [Example 25]
- MIC [1]: 20 µg/mL (≈ 22.3 µM)

SMILES: COC1C=COC2(C)Oc3c(C)c(O)c4c(O)c(c(C=NNc5ccccc5)c(O)c4c3C2=O)NC(=O)C(C)=CC=CC(C)C(O)C(C)C(O)C(C)C(OC(C)=O)C1C (centres unmarked) [Phenylhydrazone of 3-formylrifamycin SV]
- MIC [1]: 100 µg/mL (≈ 123 µM)

SMILES: CNN=Cc1c2c(O)c3c(O)c(C)c4c(c3c1O)C(=O)C(C)(OC=CC(OC)C(C)C(OC(C)=O)C(C)C(O)C(C)C(O)C(C)C=CC=C(C)C(=O)N2)O4 (centres unmarked) [N-Methylhydrazone of 3-formylrifamycin SV]
- MIC [1]: > 100 µg/mL

SMILES: COC1C=COC2(C)Oc3c(C)c(O)c4c(O)c(c(C=NNc5cccc(C(F)(F)F)c5)c(O)c4c3C2=O)NC(=O)C(C)=CC=CC(C)C(O)C(C)C(O)C(C)C(OC(C)=O)C1C (centres unmarked) [Example 43, 3-Formylrifamycin SV: hydrazone of ((3-trifluoromethyl)-phenyl) hydrazine]
- MIC [1]: 10 µg/mL (≈ 11.3 µM)

SMILES: COC1C=COC2(C)Oc3c(C)c(O)c4c(O)c(c(C=NNC5CCCCC5)c(O)c4c3C2=O)NC(=O)C(C)=CC=CC(C)C(O)C(C)C(O)C(C)C(OC(C)=O)C1C (centres unmarked) [Example 2]
- MIC [1]: 20 µg/mL (≈ 24.3 µM)

SMILES: COC1C=COC2(C)Oc3c(C)c(O)c4c(O)c(c(C=NNc5ccccc5C)c(O)c4c3C2=O)NC(=O)C(C)=CC=CC(C)C(O)C(C)C(O)C(C)C(OC(C)=O)C1C (centres unmarked) [Example 38]
- MIC [1]: 20 µg/mL (≈ 24.1 µM)

SMILES: COC1C=COC2(C)Oc3c(C)c(O)c4c(O)c(c(C=NNc5cccc(C)c5)c(O)c4c3C2=O)NC(=O)C(C)=CC=CC(C)C(O)C(C)C(O)C(C)C(OC(C)=O)C1C (centres unmarked) [Example 26]
- MIC [1]: 20 µg/mL (≈ 24.1 µM)
